{"source": "patent US8795992B2", "about": "“Yeast with increased butanol tolerance involving cell wall integrity pathway” (Butamax Advanced Biofuels LLC, priority 2008, dated 2014)", "key": {"[1]": {"tested_on": "Δslt2/Δslt2 (BY4743 having homozygous deletion of the SLT2 gene)", "experiment": "Growth of Δslt2 strain in isobutanol (growth yield, OD600)", "format": "cell-based, Saccharomyces cerevisiae", "conditions": "1 day (20 hr), 30° C."}, "[2]": {"tested_on": "BY4743", "experiment": "Growth of BY4743 in isobutanol (growth yield, OD600)", "format": "cell-based, Saccharomyces cerevisiae", "conditions": "1 day (20 hr), 30° C."}}}
{"smiles": "CC(C)CO", "note": "[isobutanol]", "values": [{"measurement": "OD (A600)", "setting": "[1]; 0.25 wt % isobutanol", "value": 0.07}, {"measurement": "OD (A600)", "setting": "[1]; 0.50 wt % isobutanol", "value": 0.03}, {"measurement": "OD (A600)", "setting": "[1]; 0.75 wt % isobutanol", "value": 0.03}, {"measurement": "OD (A600)", "setting": "[1]; 0.87 wt % isobutanol", "value": 0.01}, {"measurement": "OD (A600)", "setting": "[1]; 1.00 wt % isobutanol", "value": 0.01}, {"measurement": "OD (A600)", "setting": "[1]; 1.25 wt % isobutanol", "value": 0.02}, {"measurement": "OD (A600)", "setting": "[1]; 1.50 wt % isobutanol", "value": 0.02}, {"measurement": "OD (A600)", "setting": "[2]; 0.25 wt % isobutanol", "value": ">1"}, {"measurement": "OD (A600)", "setting": "[2]; 0.50 wt % isobutanol", "value": ">1"}, {"measurement": "OD (A600)", "setting": "[2]; 0.75 wt % isobutanol", "value": 0.07}, {"measurement": "OD (A600)", "setting": "[2]; 0.87 wt % isobutanol", "value": 0.07}, {"measurement": "OD (A600)", "setting": "[2]; 1.00 wt % isobutanol", "value": 0.04}, {"measurement": "OD (A600)", "setting": "[2]; 1.25 wt % isobutanol", "value": 0.02}, {"measurement": "OD (A600)", "setting": "[2]; 1.50 wt % isobutanol", "value": 0.04}]}
